Test results reported in patent publication US11298561B2, “Method of treating multi-drug resistance biofilm using targeted laser and antibiotics” (priority 2013, dated 2022).
“And” between values parts separate entries of the source, which are not always exact repeats. Identical values can stand only once. Like-named read-outs stand apart in the source and are kept apart here.

What was measured:
[1] = system: P. aeruginosa PA 60-65 biofilms; assay: CFU assay of P. aeruginosa PA 60-65 biofilms; assay type: cell-based, Pseudomonas aeruginosa; conditions: for reduction in P. aeruginosa biofilm viability (CFU): 24 h
Description: (§1) Two MDR clinical wound isolates, namely, methicillin-resistant S. aureus (MRSA) SA5120 and P. aeruginosa PA 60-65, were received as gifts from a repository at the U.S. Army Institute of Surgical Research (JBSA-Fort Sam Houston, Tex.). Biofilms were established on 5-mm glass discs or in 96-well half-area glass-bottom plates that had been pre-treated for 24 h with 1 mg/mL of fibrinogen. Overnight cultures of SA5120 in tryptic soy broth (TSB) were diluted to an optical density at 600 nm (OD600) of 0.1 using TSB supplemented with 10% human plasma, added to empty wells of a 96-well glass-bottom culture plate or to wells containing 5-mm glass discs, and allowed to grow into biofilms for 24 h at 37° C. under static conditions. For PA 60-65, overnight cultures in brain heart infusion broth (BHI) were diluted 20-fold using 20% BHI in phosphate-buffered saline (PBS) supplemented with 0.2% glucose and 0.4% NaCl and grown to an OD600 of 0.5 at 37° C. with shaking at 250 rpm. The bacterial suspension was diluted to an OD600 of 0.01 in PBS, and 20 μL of inoculant was spotted onto 5-mm glass discs placed in 6-well tissue culture plates. Samples were incubated at room temperature for 2 h to allow cell attachment, rinsed in PBS, and then cultured in 20% BHI/0.2% glucose/0.4% NaCl in PBS for 72 h at 37° C. with shaking at 140 rpm. Biofilms were rinsed in PBS and transferred into 96-well glass-bottom plates for subsequent treatment.
(§2) Biofilms grown on glass discs were pre-treated with tGNPs or non-targeted GNPs at 70 μg/mL in PBS for 2 h (SA5120) or 1 h (PA 60-65). The 1-h pre-treatment period for PA 60-65 was selected based upon results from comparison of biofilm dispersion caused by various tGNP incubation times used in combination with laser irradiation (FIG. 10). […] After treatment, samples were analyzed using confocal microscopy, CFU assays, or scanning electron microscopy (SEM).
Biofilms on glass discs were pre-treated with tGNPs at 70 μg/mL in PBS for 2 h (SA5120) or 1 h (PA 60-65). […] Samples were incubated for 24 h at 37° C. and then analyzed using CFU assays or SEM. […]

[2] = system: planktonic P. aeruginosa PA 60-65 cultures; assay: CFU assay of planktonic P. aeruginosa PA 60-65 cultures; assay type: cell-based, Pseudomonas aeruginosa; conditions: amikacin 24 h (16-64 μg/mL)
Description: For planktonic bacteria, broth cultures of SA5120 in TSB and PA 60-65 in BHI were grown for 16-18 h at 37° C. on a shaker at 250 rpm. The cultures were diluted to an OD600 of 0.1 using TSB for SA5120 or BHI for PA 60-65 and incubated at 37° C. for ˜1.5 h to reach an OD600 of 0.3. Samples were treated with antibiotics in triplicate in 5-mL tubes at 37° C. on a shaker at 250 rpm for 24 h, after which 1 mL of culture from each tube was transferred into a fresh tube and centrifuged to pellet the cells. The cell pellets were washed twice in PBS, re-suspended in 1 mL of PBS, serially diluted in PBS, and plated in triplicate on TSA plates. The plates were incubated overnight at 37° C., and the resulting colonies were enumerated and used to calculate CFUs/mL.

[3] = system: planktonic MRSA SA5120 cultures; assay: CFU assay of planktonic MRSA SA5120 cultures; assay type: cell-based, Staphylococcus aureus; conditions: for reduction in viability of planktonic MRSA cultures (CFU): antibiotic alone, 24 h (vancomycin 100 μg/mL)
Description: For planktonic bacteria, broth cultures of SA5120 in TSB and PA 60-65 in BHI were grown for 16-18 h at 37° C. on a shaker at 250 rpm. The cultures were diluted to an OD600 of 0.1 using TSB for SA5120 or BHI for PA 60-65 and incubated at 37° C. for ˜1.5 h to reach an OD600 of 0.3. […] The cell pellets were washed twice in PBS, re-suspended in 1 mL of PBS, serially diluted in PBS, and plated in triplicate on TSA plates. The plates were incubated overnight at 37° C., and the resulting colonies were enumerated and used to calculate CFUs/mL.

MRSA SA5120 biofilms = assay type: cell-based, Staphylococcus aureus
Description: as §1
MRSA biofilms in 96-well glass-bottom plates or on 5-mm glass discs were pre-treated with increasing concentrations of tGNPs from 0-100 μg/mL in PBS for 2 h. This 2-h treatment duration was selected based upon results from comparison of the extent of biofilm dispersion caused by different tGNP incubation periods used in combination with laser irradiation (FIG. 9). Following the tGNP pre-treatment, unattached tGNPs were washed away using PBS, and 40 μL of PBS was added to the wells. Biofilms were then irradiated with increasing numbers of laser pulses from 0-100 pulses at 532 nm and a fluence of ˜1.0 J/cm^2 using an Nd:YAG laser system (8-ns pulse, 1 Hz; Quantel, Bozeman, Mont.) and an automated XY-gantry sample positioning system operated through LabVIEW software (National Instruments, Austin, Tex.). After exposure, samples were analyzed using confocal microscopy or colony forming unit (CFU) assays.
as §2, with “10). Following the tGNP pre-treatment, samples were rinsed using PBS, and 40 μL of PBS was added to each well. Biofilms were then exposed to 50 laser pulses at 532 nm or sham exposed as described in Supplementary Materials. Biofilms treated with 50 laser pulses alone or PBS alone (controls) were also included.” for “10).”
Biofilms on glass discs were pre-treated with tGNPs at 70 μg/mL in PBS for 2 h (SA5120) or 1 h (PA 60-65). Samples were rinsed with PBS, 40 μL of PBS was added to each well, and biofilms were then exposed to 50 laser pulses at 532 nm or sham exposed. Biofilms treated with 50 laser pulses alone or PBS alone were also included. […]

[4] = system: Staphylococcus epidermidis biofilm; conditions: ns-pulsed laser non-thermal shockwaves combined with 24-h gentamicin treatment; cited from earlier work
[5] = GNP-targeted laser therapy followed by 24-h antibiotic treatment at 100 μg/mL

Molecule: NCC[C@H](O)C(=O)N[C@@H]1C[C@H](N)[C@@H](O[C@H]2O[C@H](CN)[C@@H](O)[C@H](O)[C@H]2O)[C@H](O)[C@H]1O[C@H]1O[C@H](CO)[C@@H](O)[C@H](N)[C@H]1O [amikacin]
- reduction in P. aeruginosa biofilm viability (CFU) ([1]; GNP-targeted laser therapy in combination with 8 μg/mL amikacin): 5 log
- effect of increasing amikacin from 8 to 16 μg/mL in the combination therapy ([1]; P. aeruginosa biofilms, with GNP-targeted laser therapy): did not further reduce cell viability
- reduction in P. aeruginosa biofilm viability (CFU) ([1]; amikacin alone, 8 μg/mL): ~1 log
- reduction in viability of planktonic P. aeruginosa cultures (CFU) [2]: ~4 log

Molecule: CN[C@H](CC(C)C)C(=O)N[C@H]1C(=O)N[C@@H](CC(N)=O)C(=O)N[C@H]2C(=O)N[C@H]3C(=O)N[C@H](C(=O)N[C@H](C(=O)O)c4cc(O)cc(O)c4-c4cc3ccc4O)[C@H](O)c3ccc(c(Cl)c3)Oc3cc2cc(c3O[C@@H]2O[C@H](CO)[C@@H](O)[C@H](O)[C@H]2O[C@H]2C[C@](C)(N)[C@H](O)[C@H](C)O2)Oc2ccc(cc2Cl)[C@H]1O [vancomycin, Vancomycin]
- reduction in viability of planktonic MRSA cultures (CFU) [3]: 4 log and ~3 log
- effect of GNP-targeted laser therapy on antibacterial activity of vancomycin against MRSA biofilms (MRSA SA5120 biofilms; 24-h vancomycin at 100 or 1000 μg/mL): enhanced the antibacterial activity
- reduction in MRSA biofilm viability (CFU) (MRSA SA5120 biofilms; [5]): 2 log

Molecule: gentamicin
- reduction in Staphylococcus epidermidis biofilm viability [4]: 1 log
- reduction in viability of planktonic MRSA cultures (CFU) [3]: ~4 log
- reduction in MRSA biofilm viability (CFU) (MRSA SA5120 biofilms; [5]): 4 log
- reduction in viable bacteria in MRSA biofilms (MRSA SA5120 biofilms; GNP-targeted laser therapy followed by 24-h gentamicin at 100 μg/mL): 99.99%
- reduction in MRSA biofilm viability (CFU) (MRSA SA5120 biofilms; antibiotic alone, 100 μg/mL, 24 h): 1 log

B1: papain: enzyme used to loosen S. aureus biofilms prior to CFU assay (protein, UniProt P00784 134-345, looked up)
Papain: IPEYVDWRQKGAVTPVKNQGSCGSCWAFSAVVTIEGIIKIRTGNLNEYSEQELLDCDRRSYGCNGGYPWSALQLVAQYGIHYRNTYPYEGVQRYCRSREKGPYAAKTDGVRQVQPYNEGALLYSIANQPVSVVLEAAGKDFQLYRGGIFVGPCGNKVDHAVAAVGYGPNYILIKNSWGTGWGENGYIRIKRGTGNSYGVCGLYTSSFYPVKN
- viability of planktonic MRSA cultures ([3]; 100 μg/mL papain, 2 or 4 h at 37° C.): no reduction in cell viability
